Columns and labels:
Haemonchus contortus [1] = test: In-vivo test on Mongolian gerbils using peroral application; parameters: species or system Mongolian gerbils (Meriones unguiculatus); details: repeated test 2a, gerbil, 0.32 mg/kg
Procedure: (§1) Six to eight week old Mongolian gerbils are infected through a stomach tube with ca. 2000 third instar larvae each of T. colubriformis and H. contortus. 6 days after infection, the gerbils are treated by peroral application with the test compounds, dissolved in a mixture of 2 parts DMSO and 1 part polyethylene glycol (PEG 400). On day 9 (3 days after treatment), when most of the H. contortus that are still present are late 4th instar larvae and most of the T. colubriformis are immature adults, the gerbils are killed in order to count the worms. The efficacy is calculated as the % reduction of the number of worms in each gerbil, compared with the geometric average of number of worms from 6 infected and untreated gerbils.
(§2) The above described in-vivo test on Trichostrongylus colubriformis (Tc) and Haemonchus contortus ([…]) was repeated with compounds 1.2, 1.3 and 1.5 from Table 1 and with the compounds of Examples 1a and 3a on pages 22-25 of WO 2008/96231.

[2] = tested on: Trichostrongylus colubriformis; test: as above; parameters: species or system Mongolian gerbils (Meriones unguiculatus); details: repeated test 2a, gerbil, 0.32 mg/kg
Procedure: as §1, §2

Haemonchus contortus [3] = test: Activity in vitro (egg hatch / larval development, 96-well agar plate); details: 0.1 ppm; 6 days at 25° C.; reduced egg hatch, reduced development of L3, or paralysis & death of larvae
Procedure: (§3) Freshly harvested and cleaned nematode eggs are used to seed a suitably formatted 96-well plate containing the test substances to be evaluated for antiparasitic activity. Each compound is tested by serial dilution in order to determine its MED. The test compounds are embedded in an agar-based nutritive medium allowing the full development of eggs through to 3rd instar larvae. The plates are incubated for 6 days at 25° C. and 60% relative humidity (RH). Egg-hatching and ensuing larval development are recorded to identify a possible nematodicidal activity. Efficacy is expressed in percent reduced egg hatch, reduced development of L3, or paralysis & death of larvae of all stages.

[4] = tested on: Trichostrongylus colubriformis; test: as above; details: 0.1 ppm; 6 days at 25° C.; reduced egg hatch, reduced development of L3, or paralysis & death of larvae
Procedure: as §3

`CC(C#N)(COc1cc(C#N)ccc1Oc1ccc(Cl)cc1Cl)NC(=O)c1ccc(S(F)(F)(F)(F)F)cc1` (stereo not drawn) [Compound 1.2, N-[1-cyano-1-methyl-2-(5-cyano-2-{2,4-dichlorophenoxy}-phenoxy)-ethyl]-4-pentafluorothio-benzamide] was tested, and the “Efficacy against Hc [%]” value (Haemonchus contortus [1]) was 98% and the “Efficacy against Tc [%]” value [2] was 100%.
With `CC(C#N)(COc1cc(C#N)ccc1Oc1ccc(F)cc1Br)NC(=O)c1ccc(S(F)(F)(F)(F)F)cc1` (stereo not drawn) [Compound 1.3, N-[1-cyano-1-methyl-2-(5-cyano-2-{2-bromo-4-fluorophenoxy}-phenoxy)-ethyl]-4-pentafluorothio-benzamide] the “Efficacy against Hc [%]” value (Haemonchus contortus [1]) was 100% and the “Efficacy against Tc [%]” value [2] was 98%.
`CC(C#N)(COc1cc(C#N)ccc1Oc1ccc(OC(F)(F)F)cc1Cl)NC(=O)c1ccc(S(F)(F)(F)(F)F)cc1` (stereo not drawn) [Compound 1.5, N-[1-cyano-1-methyl-2-(5-cyano-2-{2-chloro-4-trifluoromethoxy-phenoxy}-phenoxy)-ethyl]-4-pentafluorothio-benzamide] was tested, and the “Efficacy against Hc [%]” value (Haemonchus contortus [1]) was 100% and the “Efficacy against Tc [%]” value [2] was 99%.
With `CC(C#N)(COc1cc(Cl)ccc1Oc1ccc(Cl)cc1Cl)NC(=O)c1ccc(S(C)(=O)=O)cc1` (stereo not drawn) [Compound 1.10, N-[1-cyano-1-methyl-2-(5-chloro-2-{2,4-dichlorophenoxy}-phenoxy)-ethyl]-4-methylsulfonyl-benzamide] the “efficacy against Haemonchus contortus” value (Haemonchus contortus [3]) was “more than 90%” and the “efficacy against Trichostrongylus colubriformis” value [4] was “more than 90%”.
With `CC(C#N)(COc1cc(C#N)ccc1C(F)(F)F)NC(=O)c1ccc(S(F)(F)(F)(F)F)cc1` (stereo not drawn) [reference compound] the “Efficacy against Hc [%]” value (Haemonchus contortus [1]) was 85% and the “Efficacy against Tc [%]” value [2] was 33%.
`CC(C#N)(COc1ccc(C#N)cc1C(F)(F)F)NC(=O)c1ccc(S(F)(F)(F)(F)F)cc1` (stereo not drawn) [reference compound] was tested, and the “Efficacy against Hc [%]” value (Haemonchus contortus [1]) was 40% and the “Efficacy against Tc [%]” value [2] was 23%.

Source: US8168681B2, “Amidoacetonitrile compounds and pesticidal composition thereof” (Novartis AG, priority 2008, dated 2012)
